{"source": "paper PMC10733463", "about": "“Berberine-microbiota interplay: orchestrating gut health through modulation of the gut microbiota and metabolic transformation into bioactive metabolites” (Frontiers in Pharmacology, 2023)", "key": {"ileal microbiota": {"system": "ileal microbiota", "experiment": "16S rRNA gene sequencing, microbiota composition in the ileum", "format": "in vivo, Ross 308 broiler chickens"}, "duodenum": {"system": "duodenum", "experiment": "Intestinal morphology (villus length, crypt depth) in the duodenum", "format": "in vivo, Ross 308 broiler chickens", "settings": "21 days", "source_text": "The study was undertaken following the guidelines of the ethics committee of the Faculty of Veterinary Medicine and Bioscience Engineering, Ghent University, in accordance with the EU Directive 2010/63/EU. […] They were allotted into 4 groups, with three replicate pens per group each housing 8 chickens. The animals were not vaccinated. Water and commercial starter feed (day 1-12, FARM 1 Mash, Country's Best, […], Belgium) or grower (day 13-21, FARM 2 mash, Country's Best, […], Belgium) were provided ad libitum. […] At day 21, 4 birds per pen were weighted then euthanized by sodium pentobarbital injection for sampling. […] Additionally, ileal and caecal content samples were collected and stored at -20°C for berberine and berberine-derived metabolite quantification. […] 24 h formalin-fixed duodenal intestinal tissue segments were embedded in paraffin wax and sectioned at 5 μm, followed by haematoxylin and eosin staining. Villus length and crypt depth were assessed using a PC-based image analysis system (Leica Application Suite V4, LAS V4.; Leica, Diegem Belgium)."}, "[1]": {"settings": "0.5 g berberine/kg feed vs normal diet, 21 days, LinDA-normalized abundance"}, "[2]": {"settings": "0.5 g berberine/kg feed, 21 days"}, "[3]": {"settings": "1 g berberine/kg feed vs normal diet, 21 days, LinDA-normalized abundance"}}}
{"smiles": "COc1ccc2cc3[n+](cc2c1OC)CCc1cc2c(cc1-3)OCO2", "note": "[Berberine, Berberine chloride]", "values": [{"measurement": "L2 FC Curtobacterium, 0.5 vs 0", "setting": "ileal microbiota; [1]", "result": -1.50}, {"measurement": "L2 FC Faecalibacterium, 0.5 vs 0", "setting": "ileal microbiota; [1]", "result": 1.01}, {"measurement": "L2 FC Family_ Peptostreptococcaceae, 0.5 vs 0", "setting": "ileal microbiota; [1]", "result": -0.52}, {"measurement": "L2 FC Glutamicibacter, 0.5 vs 0", "setting": "ileal microbiota; [1]", "result": -0.49}, {"measurement": "L2 FC Lachnoclostridium 5, 0.5 vs 0", "setting": "ileal microbiota; [1]", "result": -0.09}, {"measurement": "L2 FC Ralstonia, 0.5 vs 0", "setting": "ileal microbiota; [1]", "result": -1.95}, {"measurement": "L2 FC Romboutsia, 0.5 vs 0", "setting": "ileal microbiota; [1]", "result": -0.07}, {"measurement": "L2 FC Serratia, 0.5 vs 0", "setting": "ileal microbiota; [1]", "result": -0.80}, {"measurement": "L2 FC Tyzzerella, 0.5 vs 0", "setting": "ileal microbiota; [1]", "result": -0.72}, {"measurement": "L2 FC uncultured genus of Mollicutes RF39, 0.5 vs 0", "setting": "ileal microbiota; [1]", "result": 0.65}, {"measurement": "L2 FC uncultured genus of Peptostreptococcaceae, 0.5 vs 0", "setting": "ileal microbiota; [1]", "result": -0.24}, {"measurement": "Mean relative abundance (%) Cronobacter", "setting": "ileal microbiota; [2]", "result": 0.00, "unit": "%"}, {"measurement": "Mean relative abundance (%) Curtobacterium", "setting": "ileal microbiota; [2]", "result": 0.02, "unit": "%"}, {"measurement": "Mean relative abundance (%) Faecalibacterium", "setting": "ileal microbiota; [2]", "result": 0.02, "unit": "%"}, {"measurement": "Mean relative abundance (%) Family_ Peptostreptococcaceae", "setting": "ileal microbiota; [2]", "result": 0.15, "unit": "%"}, {"measurement": "Mean relative abundance (%) Glutamicibacter", "setting": "ileal microbiota; [2]", "result": 0.01, "unit": "%"}, {"measurement": "Mean relative abundance (%) Lachnoclostridium 5", "setting": "ileal microbiota; [2]", "result": 0.02, "unit": "%"}, {"measurement": "Mean relative abundance (%) Ralstonia", "setting": "ileal microbiota; [2]", "result": 0.05, "unit": "%"}, {"measurement": "Mean relative abundance (%) Romboutsia", "setting": "ileal microbiota; [2]", "result": 0.13, "unit": "%"}, {"measurement": "Mean relative abundance (%) Serratia", "setting": "ileal microbiota; [2]", "result": 0.00, "unit": "%"}, {"measurement": "Mean relative abundance (%) Tyzzerella", "setting": "ileal microbiota; [2]", "result": 0.00, "unit": "%"}, {"measurement": "Mean relative abundance (%) uncultured genus of Mollicutes RF39", "setting": "ileal microbiota; [2]", "result": 0.02, "unit": "%"}, {"measurement": "Mean relative abundance (%) uncultured genus of Peptostreptococcaceae", "setting": "ileal microbiota; [2]", "result": 24.63, "unit": "%"}, {"measurement": "Mean relative abundance of Lachnospiraceae", "setting": "ileal microbiota; [2]", "result": 14.77, "unit": "%"}, {"measurement": "Mean relative abundance of Peptostreptococcaceae", "setting": "ileal microbiota; [2]", "result": 24.91, "unit": "%"}, {"measurement": "Mean relative abundance of Ruminococcaceae", "setting": "ileal microbiota; [2]", "result": 6.11, "unit": "%"}, {"measurement": "L2FC of LinDA-normalized abundance of Lachnospiraceae", "setting": "ileal microbiota; 0.5 vs 0 g berberine/kg feed", "result": -0.17}, {"measurement": "L2FC of LinDA-normalized abundance of Peptostreptococcaceae", "setting": "ileal microbiota; 0.5 vs 0 g berberine/kg feed", "result": -0.50}, {"measurement": "L2FC of LinDA-normalized abundance of Ruminococcaceae", "setting": "ileal microbiota; 0.5 vs 0 g berberine/kg feed", "result": 0.24}, {"measurement": "L2 FC Cronobacter, 1 vs 0", "setting": "ileal microbiota; [3]", "result": -3.64}, {"measurement": "L2 FC Curtobacterium, 1 vs 0", "setting": "ileal microbiota; [3]", "result": -2.66}, {"measurement": "L2 FC Faecalibacterium, 1 vs 0", "setting": "ileal microbiota; [3]", "result": -2.86}, {"measurement": "L2 FC Family_ Peptostreptococcaceae, 1 vs 0", "setting": "ileal microbiota; [3]", "result": -7.51}, {"measurement": "L2 FC Glutamicibacter, 1 vs 0", "setting": "ileal microbiota; [3]", "result": -2.76}, {"measurement": "L2 FC Lachnoclostridium 5, 1 vs 0", "setting": "ileal microbiota; [3]", "result": -3.40}, {"measurement": "L2 FC Ralstonia, 1 vs 0", "setting": "ileal microbiota; [3]", "result": -5.90}, {"measurement": "L2 FC Romboutsia, 1 vs 0", "setting": "ileal microbiota; [3]", "result": -6.95}, {"measurement": "L2 FC Serratia, 1 vs 0", "setting": "ileal microbiota; [3]", "result": -3.49}, {"measurement": "L2 FC Tyzzerella, 1 vs 0", "setting": "ileal microbiota; [3]", "result": -2.59}, {"measurement": "L2 FC uncultured genus of Mollicutes RF39, 1 vs 0", "setting": "ileal microbiota; [3]", "result": -3.09}, {"measurement": "L2 FC uncultured genus of Peptostreptococcaceae, 1 vs 0", "setting": "ileal microbiota; [3]", "result": -9.51}, {"measurement": "Mean relative abundance (%) Cronobacter", "setting": "ileal microbiota; 1 g berberine/kg feed, 21 days", "result": 0.00, "unit": "%"}, {"measurement": "Mean relative abundance (%) Curtobacterium", "setting": "ileal microbiota; 1 g berberine/kg feed, 21 days", "result": 0.03, "unit": "%"}, {"measurement": "Mean relative abundance (%) Faecalibacterium", "setting": "ileal microbiota; 1 g berberine/kg feed, 21 days", "result": 0.01, "unit": "%"}, {"measurement": "Mean relative abundance (%) Family_ Peptostreptococcaceae", "setting": "ileal microbiota; 1 g berberine/kg feed, 21 days", "result": 0.01, "unit": "%"}, {"measurement": "Mean relative abundance (%) Glutamicibacter", "setting": "ileal microbiota; 1 g berberine/kg feed, 21 days", "result": 0.01, "unit": "%"}, {"measurement": "Mean relative abundance (%) Lachnoclostridium 5", "setting": "ileal microbiota; 1 g berberine/kg feed, 21 days", "result": 0.00, "unit": "%"}, {"measurement": "Mean relative abundance (%) Ralstonia", "setting": "ileal microbiota; 1 g berberine/kg feed, 21 days", "result": 0.37, "unit": "%"}, {"measurement": "Mean relative abundance (%) Romboutsia", "setting": "ileal microbiota; 1 g berberine/kg feed, 21 days", "result": 0.01, "unit": "%"}, {"measurement": "Mean relative abundance (%) Serratia", "setting": "ileal microbiota; 1 g berberine/kg feed, 21 days", "result": 0.00, "unit": "%"}, {"measurement": "Mean relative abundance (%) Tyzzerella", "setting": "ileal microbiota; 1 g berberine/kg feed, 21 days", "result": 0.01, "unit": "%"}, {"measurement": "Mean relative abundance (%) uncultured genus of Mollicutes RF39", "setting": "ileal microbiota; 1 g berberine/kg feed, 21 days", "result": 0.00, "unit": "%"}, {"measurement": "Mean relative abundance (%) uncultured genus of Peptostreptococcaceae", "setting": "ileal microbiota; 1 g berberine/kg feed, 21 days", "result": 0.72, "unit": "%"}, {"measurement": "Mean relative abundance of Lachnospiraceae", "setting": "ileal microbiota; 1 g berberine/kg feed, 21 days", "result": 26.87, "unit": "%"}, {"measurement": "Mean relative abundance of Peptostreptococcaceae", "setting": "ileal microbiota; 1 g berberine/kg feed, 21 days", "result": 0.73, "unit": "%"}, {"measurement": "Mean relative abundance of Ruminococcaceae", "setting": "ileal microbiota; 1 g berberine/kg feed, 21 days", "result": 8.08, "unit": "%"}, {"measurement": "L2FC of LinDA-normalized abundance of Lachnospiraceae", "setting": "ileal microbiota; 1 vs 0 g berberine/kg feed", "result": 2.99}, {"measurement": "L2FC of LinDA-normalized abundance of Peptostreptococcaceae", "setting": "ileal microbiota; 1 vs 0 g berberine/kg feed", "result": -6.91}, {"measurement": "L2FC of LinDA-normalized abundance of Ruminococcaceae", "setting": "ileal microbiota; 1 vs 0 g berberine/kg feed", "result": 3.41}, {"measurement": "Estimated microbial diversity (Shannon index)", "setting": "ileal microbiota; highest concentration (1 g/kg feed), p = 0.045", "result": "significantly increased"}, {"measurement": "Abundance of phylum Tenericutes", "setting": "ileal microbiota; lowest concentration (0.1 g/kg feed)", "result": "increase"}, {"measurement": "Crypt depth", "setting": "duodenum; 0.1 g berberine/kg feed", "result": "114 ± 21", "unit": "µm"}, {"measurement": "Villus length", "setting": "duodenum; 0.1 g berberine/kg feed", "result": "1,678 ± 101 µm"}, {"measurement": "Villus to crypt ratio", "setting": "duodenum; 0.1 g berberine/kg feed", "result": "15.30 ± 2.50"}, {"measurement": "Crypt depth", "setting": "duodenum; 0.5 g berberine/kg feed", "result": "104 ± 15", "unit": "µm"}, {"measurement": "Villus length", "setting": "duodenum; 0.5 g berberine/kg feed", "result": "1,815 ± 148 µm"}, {"measurement": "Villus to crypt ratio", "setting": "duodenum; 0.5 g berberine/kg feed", "result": "17.98 ± 2.53"}, {"measurement": "Crypt depth", "setting": "duodenum; 1 g berberine/kg feed", "result": "103 ± 17", "unit": "µm"}, {"measurement": "Villus length", "setting": "duodenum; 1 g berberine/kg feed", "result": "1,820 ± 150 µm"}, {"measurement": "Villus to crypt ratio", "setting": "duodenum; 1 g berberine/kg feed", "result": "18.31 ± 3.21"}]}
